Structures can show the parent of a compound that is named as a salt.
How the values were obtained:
M. smegmatis = experiment: MIC on mycobacteria; assay type: cell-based, Mycobacterium smegmatis; conditions: Mycolicibacterium smegmatis, read-out: MIC on mycobacteria
[1] = Cytotoxicity on mammalian cells (CCK-8), NIH3T3; assay type: cell-based; conditions: mouse, NIH3T3 cells, 3T3 cell line
Description: (§1) Cytotoxicity test of bacterial sensitizers on mammalian cells. Cell viability was assessed by using Cell Counting Kit-8 (CCK-8, Dojindo, Japan). HEK293 or NIH3T3 cells were seeded in a 96-well plate one day before the experiment to reach 80% confluency. Cells were then incubated with various concentration of bacterial sensitizers at 37° C. with 5% CO2 for 24 h, then 10 μL of CCK-8 solution was added to each well, and the plate was incubated for an additional at 37° C. 2 h with 5% CO2. The optical density at 450 nm was recorded by plate reader; and the results were calculated as a percentage of viability compared with the untreated control.

[2] = Cytotoxicity in H9c2 cells (CCK-8); assay type: cell-based; conditions: rat, H9c2 cells; H9c2 cell line
Method in brief: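 H9c2 cells were grown in DMEM with 10% FBS, seeded the day before, and exposed to a range of di-amidine concentrations for 24 h at 37 °C, 5% CO2. Viability was read by CCK-8 after 3 h at 37 °C as absorbance at 450 nm.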

B. subtilis = experiment: MIC determination and sensitization fold on B. subtilis; assay type: cell-based; conditions: B. subtilis; for Sensitization fold: erythromycin; for MIC: Bacillus subtilis, 24 h, compound alone, read-out: MIC
[3] = Cytotoxicity on mammalian cells (CCK-8), HEK293; assay type: cell-based; conditions: human, HEK293 cells; HEK293 cell line; 24 h
Description: as §1

E. coli (ATCC 25922) = experiment: MIC determination, sensitization fold and FIC index on E. coli; assay type: cell-based; conditions: for Sensitization: compound up to 25 μM; for MIC: Escherichia coli, ATCC25922, 24 h
Method in brief: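 E. coli in cation-adjusted Mueller Hinton II, 5×10^5 CFU/ml, 24 h at 37 °C shaking; rifampicin two-fold serial dilutions with or without fixed sensitizer (10 μM).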

MRSA (ATCC 33592) = experiment: MIC determination and sensitization fold on MRSA; assay type: cell-based, methicillin-resistant Staphylococcus aureus; conditions: MRSA, rifampicin
Description: Bacteria strains: E. coli (ATCC 25922), A. baumannii (ATCC 17978), K. pneumoniae (43816), S. maltophilia (ATCC 31559), S. typhimurium (ATCC 14028), C. werkmanii (ATCC 51114), S. aureus (ATCC 12600) and methicillin-resistant Staphylococcus aureus (MRSA, ATCC 33592) strains were purchased from ATCC. NR698 was provided.
Bacteria culture and MICs determination: Gram-negative bacteria were cultured in Mueller Hinton II cation-adjusted broth. Gram-positive bacteria were cultured in LB broth. Mycobacterium smegmatis was cultured in Middlebrook 7H9 Broth. MICs of antibiotics itself were determined by performing two-fold serial dilutions of antibiotics. MICs of antibiotics in the presence of bacterial sensitizers were determined by performing two-fold serial dilutions of antibiotics with or without a constant concentration of bacterial sensitizers. The MICs tests were performed on 96-well plates with a final volume of 200 μl Mueller Hinton II cation-adjusted broth in each well. Each well was inoculated with 5×10^5 CFU/ml bacteria and was incubated for 24 h at 37° C. with continuous shaking of 200 rpm. The bacterial density was then determined by OD600. Bacterial growth %=OD600 of antibiotic treatment group/OD600 of antibiotic non-treatment group. MICs was determined as the concentrations that inhibit more than 90% of bacteria growth.
Sensitization fold determination and FIC index calculations: Sensitization fold=MIC of antibiotic only/MIC of antibiotic with bacterial sensitizer. […] Since the MICs were determined by performing two-fold serial dilutions of antibiotic, so the sensitization fold can is the times of 2.
Bacteria strains (as indicated in Table 5B) were cultured with rifampicin at various concentrations in the presence or absence of 10 μM of the indicated compound for 20 h at 37° C. The MIC, sensitization, cytotoxicity, and MIC on mycobacteria were tested according to methods described herein. […] The sensitization activities of compounds on MRSA were tested using rifampicin. The sensitization activities of compounds on E. coli were tested using rifampicin.

HEK293 cells = experiment: Cytotoxicity on mammalian cells (CCK-8), HEK293; assay type: cell-based; conditions: for IC50: Homo sapiens, HEK293; for CC50: HEK293 cell line, 24 h
Description: as §1

NIH3T3 cells = experiment: Cytotoxicity on mammalian cells (CCK-8), NIH3T3; assay type: cell-based; conditions: 3T3 cell line; 24 h
Description: as §1

[4] = 10 μM compound, rifampicin as the antibiotic (Table 6)
[5] = E. coli, rifampicin, compound at 10 μM
[6] = E. coli, rifampicin, compound at 25 μM

Q: With `N=C(N)c1ccc(OCc2ccc(COc3ccc(C(=N)N)cc3)cc2)cc1` [MD-101, 1,4-Bis [(4-amidino)-phenoxymethyl]benzene dihydrochloride] as the molecule, how does the MIC (M. smegmatis) read?
A: 3 to 6 µM

Q: And the CC50 at 24 h [1]?
A: > 100 µM

Q: What about the CC50 at 24 h [2] of the same molecule?
A: 50 µM

Q: What about the Sensitization fold (B. subtilis; compound at 3 μM) of the same molecule?
A: 2-fold at 3 μM.

Q: And the Sensitization fold (B. subtilis; compound at 6 μM)?
A: 4-fold at 6 μM,

Q: What about the MIC (B. subtilis) of the same molecule?
A: 25 µM

Q: What about the CC50 at 24 h [3] of the same molecule?
A: > 100 µM

Q: And the Sensitization (E. coli (ATCC 25922); E. coli, rifampicin)?
A: No effect up to 25 μM

Q: What about the MIC (E. coli (ATCC 25922)) of the same molecule?
A: 100 µM

Q: What does the source list for `Cc1cc(COc2ccc(C(=N)NC(C)C)cc2)cc(COc2ccc(C(=N)NC(C)C)cc2)c1` [MD-102, 4,4′-(((5-methyl-1,3-phenylene)bis(methylene))bis(oxy))bis(N-isopropylbenzimidamide) dihydrochloride]?
A: MIC (M. smegmatis): 3 µM; CC50 at 24 h [1]: > 100 µM; CC50 at 24 h [2]: > 100 µM; Sensitization fold (B. subtilis; compound at 2 μM): 4-fold at 2 μM; CC50 at 24 h [3]: > 100 µM; Sensitization fold (MRSA (ATCC 33592); compound at 4 μM): 32-fold at 4 μM; Sensitization fold (E. coli (ATCC 25922); [4]): 1 fold; Sensitization (E. coli (ATCC 25922); E. coli, rifampicin): No effect up to 25 μM.; MIC (E. coli (ATCC 25922)): 50 µM; sensitization activity (E. coli (ATCC 25922); rifampicin, compound at up to 10 μM): no sensitization activity

Q: With `CC(C)(C)c1cc(COc2ccc(C(=N)N)cc2)cc(COc2ccc(C(=N)N)cc2)c1` [MD-105, 4,4′-(((5-(tert-butyl)-1,3-phenylene)bis(methylene))bis(oxy))dibenzimidamide dihydrochloride] as the molecule, how does the MIC (M. smegmatis) read?
A: 6 µM

Q: What about the CC50 at 24 h [2] of the same molecule?
A: 25 µM

Q: And the IC50 (HEK293 cells)?
A: 25 to 50 µM

Q: And the Sensitization fold (E. coli (ATCC 25922); [4])?
A: 16 fold

Q: What about the Sensitization fold (E. coli (ATCC 25922); [5]) of the same molecule?
A: 16-fold at 10 μM.

Q: What about the MIC (E. coli (ATCC 25922)) of the same molecule?
A: 25 µM

Q: Which MIC (M. smegmatis) does the source give for `N=C(N)c1ccc(OCc2cc(COc3ccc(C(=N)N)cc3)cc(COc3ccc(C(=N)N)cc3)c2)cc1` [MD-107, 4,4′,4″-((benzene-1,3,5-triyltris(methylene))tris(oxy))tribenzimidamide trihydrochloride] here?
A: 3 to 6 µM

Q: What about the CC50 at 24 h [1] of the same molecule?
A: > 100 µM

Q: And the CC50 at 24 h [2]?
A: > 100 µM

Q: And the Sensitization fold (B. subtilis; compound at 6 μM)?
A: 8-fold at 6 μM

Q: What about the MIC (B. subtilis) of the same molecule?
A: 12.5 µM

Q: And the CC50 at 24 h [3]?
A: > 100 µM

Q: And the Sensitization fold (E. coli (ATCC 25922); E. coli, rifampicin, compound at 12.5 μM)?
A: 4-fold at 12.5 μM

Q: And the Sensitization fold (E. coli (ATCC 25922); [6])?
A: 8-fold at 25 μM

Q: And the MIC (E. coli (ATCC 25922))?
A: 50 µM

Q: For `Cc1cc(OCc2ccc(C(=N)N)cc2)cc(OCc2ccc(C(=N)N)cc2)c1` [MD-109, 4,4′-(((5-methyl-1,3-phenylene)bis(oxy))bis(methylene))dibenzimidamide dihydrochloride], which CC50 (NIH3T3 cells) is on record?
A: 100 µM

Q: What about the Sensitization fold (B. subtilis; compound at 12 μM) of the same molecule?
A: 32-fold at 12 μM

Q: What about the MIC (B. subtilis) of the same molecule?
A: 50 µM

Q: What about the CC50 (HEK293 cells) of the same molecule?
A: 100 µM

Q: And the IC50 (HEK293 cells)?
A: 100 µM

Q: And the Sensitization fold (E. coli (ATCC 25922); [4])?
A: 8 fold

Q: And the Sensitization fold (E. coli (ATCC 25922); [5])?
A: 8-fold at 10 μM

Q: And the Sensitization fold (E. coli (ATCC 25922); [6])?
A: 32-fold at 25 μM

Q: What about the MIC (E. coli (ATCC 25922)) of the same molecule?
A: 100 µM

Q: With `Cc1cc(COc2ccc(C(=N)N)cc2F)cc(COc2ccc(C(=N)N)cc2F)c1` [MD-120, 4,4′-(((5-methyl-1,3-phenylene)bis(methylene))bis(oxy))bis(3-fluorobenzimidamide) dihydrochloride] as the molecule, how does the CC50 (NIH3T3 cells) read?
A: 100 µM

Q: What about the CC50 (HEK293 cells) of the same molecule?
A: 100 µM

Q: What about the IC50 (HEK293 cells) of the same molecule?
A: 100 µM

Q: And the Sensitization fold (MRSA (ATCC 33592); compound at 6 μM)?
A: 4-fold at 6 μM

Q: And the Sensitization fold (E. coli (ATCC 25922); [4])?
A: 32 fold

Q: What about the Sensitization fold (E. coli (ATCC 25922); [5]) of the same molecule?
A: 32-fold at 10 μM

Q: And the Sensitization fold (E. coli (ATCC 25922); [6])?
A: 64-fold at 25 μM

Q: What about the MIC (E. coli (ATCC 25922)) of the same molecule?
A: 100 µM

Q: Which results are given for `COc1cc(OCc2ccc(C(=N)N)cc2)cc(OCc2ccc(C(=N)N)cc2)c1` [MD-126, 4,4′-(((5-methoxy-1,3-phenylene)bis(oxy))bis(methylene))dibenzimidamide dihydrochloride]?
A: CC50 (NIH3T3 cells): 100 µM; CC50 (HEK293 cells): 100 µM; IC50 (HEK293 cells): 100 µM; Sensitization fold (E. coli (ATCC 25922); [4]): 2 fold; Sensitization fold (E. coli (ATCC 25922); [5]): 2-fold at 10 μM; MIC (E. coli (ATCC 25922)): > 50 µM

From patent publication US20230105108A1, “COMPOUNDS FOR THE TREATMENT OF BACTERIAL INFECTIONS AND POTENTIATION OF ANTIBIOTICS” (GEORGIA STATE UNIVERSITY RESEARCH FOUNDATION, INC., priority 2019, published 2023)
